Reference: ChEMBL document CHEMBL5465560, “Selectivity Literature for EUbOPEN Chemogenomic Library” (2024)

Legend:
[1] = target: Cyclin-dependent kinase 17 (Homo sapiens) (UniProt Q00537); experiment: Selectivity interaction (KinomeScan (DiscoverX)) EUB0000607a CDK17; conditions: at 10 µM
[2] = target: T1, NUAK family SNF1-like kinase 2 (Homo sapiens) (UniProt Q9H093); experiment: Selectivity interaction (KinomeScan (DiscoverX)) EUB0000695a NUAK2; conditions: at 100 nM
T1 sequence (whole entry): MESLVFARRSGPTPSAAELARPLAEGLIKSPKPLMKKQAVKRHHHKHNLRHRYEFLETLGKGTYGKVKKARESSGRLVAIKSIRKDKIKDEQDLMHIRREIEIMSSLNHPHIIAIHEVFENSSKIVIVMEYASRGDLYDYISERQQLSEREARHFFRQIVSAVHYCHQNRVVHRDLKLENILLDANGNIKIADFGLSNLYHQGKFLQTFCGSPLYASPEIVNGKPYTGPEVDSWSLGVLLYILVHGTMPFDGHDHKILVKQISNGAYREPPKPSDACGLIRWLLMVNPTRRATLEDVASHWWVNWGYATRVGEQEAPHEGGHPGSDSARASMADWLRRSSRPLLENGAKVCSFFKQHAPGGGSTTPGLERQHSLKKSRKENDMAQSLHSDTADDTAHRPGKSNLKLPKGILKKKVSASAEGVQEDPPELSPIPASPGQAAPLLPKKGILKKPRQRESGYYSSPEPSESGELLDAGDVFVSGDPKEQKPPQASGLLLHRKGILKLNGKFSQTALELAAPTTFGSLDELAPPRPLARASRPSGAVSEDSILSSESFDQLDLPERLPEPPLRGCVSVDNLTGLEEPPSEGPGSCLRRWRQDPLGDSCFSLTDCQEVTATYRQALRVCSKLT

[3] = target: T2, Mitogen-activated protein kinase kinase kinase 6 (Homo sapiens) (UniProt O95382); experiment: Selectivity interaction (KinomeScan (DiscoverX)) EUB0000595a MAP3K6; conditions: at 10 µM
T2 sequence (whole entry): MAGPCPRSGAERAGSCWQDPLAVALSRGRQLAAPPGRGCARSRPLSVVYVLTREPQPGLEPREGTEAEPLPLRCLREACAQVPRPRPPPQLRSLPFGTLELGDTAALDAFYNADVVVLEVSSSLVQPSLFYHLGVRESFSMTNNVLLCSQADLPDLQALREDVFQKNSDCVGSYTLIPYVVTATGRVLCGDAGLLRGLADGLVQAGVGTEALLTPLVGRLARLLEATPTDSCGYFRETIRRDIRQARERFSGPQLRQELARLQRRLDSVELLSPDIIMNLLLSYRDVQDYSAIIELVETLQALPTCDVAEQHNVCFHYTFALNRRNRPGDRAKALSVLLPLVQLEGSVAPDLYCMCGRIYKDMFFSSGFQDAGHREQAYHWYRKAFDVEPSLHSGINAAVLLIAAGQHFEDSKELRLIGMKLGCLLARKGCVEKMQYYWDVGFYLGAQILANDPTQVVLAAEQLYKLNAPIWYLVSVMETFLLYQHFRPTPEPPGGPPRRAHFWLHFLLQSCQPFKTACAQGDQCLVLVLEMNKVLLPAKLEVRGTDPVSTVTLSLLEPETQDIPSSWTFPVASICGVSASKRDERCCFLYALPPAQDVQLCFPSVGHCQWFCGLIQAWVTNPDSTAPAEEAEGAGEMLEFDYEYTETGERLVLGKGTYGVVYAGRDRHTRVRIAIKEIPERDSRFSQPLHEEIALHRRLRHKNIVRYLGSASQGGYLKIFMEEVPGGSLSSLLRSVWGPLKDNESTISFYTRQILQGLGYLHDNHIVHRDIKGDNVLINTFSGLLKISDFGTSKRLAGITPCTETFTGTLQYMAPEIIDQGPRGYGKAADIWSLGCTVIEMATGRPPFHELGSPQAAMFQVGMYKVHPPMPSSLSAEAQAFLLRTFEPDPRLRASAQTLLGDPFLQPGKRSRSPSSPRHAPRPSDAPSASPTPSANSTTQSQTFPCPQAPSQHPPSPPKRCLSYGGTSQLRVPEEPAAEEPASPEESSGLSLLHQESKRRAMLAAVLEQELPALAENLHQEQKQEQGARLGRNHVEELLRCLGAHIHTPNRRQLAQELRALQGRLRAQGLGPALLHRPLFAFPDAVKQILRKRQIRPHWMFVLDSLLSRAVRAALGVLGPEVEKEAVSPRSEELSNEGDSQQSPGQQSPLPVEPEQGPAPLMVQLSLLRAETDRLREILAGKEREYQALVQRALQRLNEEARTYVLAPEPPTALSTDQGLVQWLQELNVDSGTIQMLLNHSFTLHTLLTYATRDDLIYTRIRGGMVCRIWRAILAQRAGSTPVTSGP

[4] = target: T3, Dual serine/threonine and tyrosine protein kinase (Homo sapiens) (UniProt Q6XUX3); conditions: at 10 µM
T3 sequence (whole entry): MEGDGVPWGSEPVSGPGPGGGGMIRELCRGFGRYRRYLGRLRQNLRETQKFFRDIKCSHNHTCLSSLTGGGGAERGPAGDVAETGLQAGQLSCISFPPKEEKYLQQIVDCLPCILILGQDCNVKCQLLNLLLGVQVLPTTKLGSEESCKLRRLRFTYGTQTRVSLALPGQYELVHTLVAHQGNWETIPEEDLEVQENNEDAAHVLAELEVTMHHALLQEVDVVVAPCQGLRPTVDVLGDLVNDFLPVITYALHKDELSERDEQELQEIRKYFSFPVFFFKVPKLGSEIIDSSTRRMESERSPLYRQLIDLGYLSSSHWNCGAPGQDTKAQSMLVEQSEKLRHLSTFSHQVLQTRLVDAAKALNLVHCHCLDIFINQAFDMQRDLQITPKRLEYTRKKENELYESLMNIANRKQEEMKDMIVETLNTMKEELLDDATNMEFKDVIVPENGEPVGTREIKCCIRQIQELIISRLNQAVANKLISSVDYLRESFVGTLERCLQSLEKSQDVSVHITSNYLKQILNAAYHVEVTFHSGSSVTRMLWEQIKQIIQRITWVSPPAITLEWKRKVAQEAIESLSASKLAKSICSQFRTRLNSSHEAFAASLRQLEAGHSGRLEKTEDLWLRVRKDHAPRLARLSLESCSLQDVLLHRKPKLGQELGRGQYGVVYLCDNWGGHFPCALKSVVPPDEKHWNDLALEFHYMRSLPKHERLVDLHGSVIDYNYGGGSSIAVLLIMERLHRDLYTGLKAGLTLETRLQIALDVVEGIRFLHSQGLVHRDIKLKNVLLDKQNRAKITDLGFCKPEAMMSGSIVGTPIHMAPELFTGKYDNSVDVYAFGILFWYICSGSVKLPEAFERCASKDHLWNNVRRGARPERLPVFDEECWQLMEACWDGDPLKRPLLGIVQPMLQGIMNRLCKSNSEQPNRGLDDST

Chain of Cyclin-dependent kinase 17 (Homo sapiens) (Q00537 whole entry, looked up): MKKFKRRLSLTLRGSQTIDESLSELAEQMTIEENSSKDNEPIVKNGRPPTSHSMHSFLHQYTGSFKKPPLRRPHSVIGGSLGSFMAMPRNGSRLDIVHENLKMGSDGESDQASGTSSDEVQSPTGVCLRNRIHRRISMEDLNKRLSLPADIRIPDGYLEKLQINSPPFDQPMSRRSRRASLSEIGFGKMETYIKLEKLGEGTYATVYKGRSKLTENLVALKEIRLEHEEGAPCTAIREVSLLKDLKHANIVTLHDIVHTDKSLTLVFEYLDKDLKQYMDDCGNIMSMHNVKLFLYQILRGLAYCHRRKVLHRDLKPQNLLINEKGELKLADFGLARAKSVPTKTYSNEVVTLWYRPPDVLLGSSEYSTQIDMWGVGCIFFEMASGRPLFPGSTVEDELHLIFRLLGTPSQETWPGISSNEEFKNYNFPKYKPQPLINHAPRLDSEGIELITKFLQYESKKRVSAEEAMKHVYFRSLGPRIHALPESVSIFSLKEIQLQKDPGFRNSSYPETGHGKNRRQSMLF

`CNC(=O)Nc1ccc(-c2nc(N3CC4CCC(C3)O4)c3cnn(C4CCC5(CC4)OCCO5)c3n2)cc1` gave a % of control [1] of 100%.

Work on `Cc1cc(F)c(C(=O)Nc2cccc(-c3nncn3C(C)C)n2)cc1-n1cnc(C2CC2)c1` yielded a % of control [2] of 94%.

`COCC(=O)NC/C=C/c1ccc2ncnc(Nc3ccc(Oc4ccc(C)nc4)c(C)c3)c2c1` [CP-724714] showed a % of control [3] of 100%.

In the case of `Cc1cc([C@@H](C)Nc2ccccc2C(=O)O)c2nc(N3CCOCC3)cc(=O)n2c1` [AZD-6482], the % of control [4] was 100%.
